# Results reported in patent US11478466B2, “Small molecule promoting osteoblast differentiation” (Cornell University, priority 2019, dated 2022).
# Tested on: C2C12 cells
# Assay: qRT-PCR of osteoblast differentiation transcripts in C2C12 cells
# Type: cell-based, mouse
# Details: C2C12, 10 μM
# Method: For quantitative RT-PCR analysis of gene expression in C2C12 cultures, cells were treated for 2 days with 10 μM DIPQUO and harvested into Trizol reagent (Invitrogen). One microgram of RNA was reverse transcribed using the VILO-RT kit (Invitrogen) to generate cDNA, which was diluted 1:25 in RNase-free H2O for qPCR with Sybr green using the Roche 480 II LightCycler and the 2^−ΔΔCT method (Livak and Schmittgen, 2001). For analysis of osteoclast gene expression, RAW 264.7 cells were treated with DMSO, 50 ng/ml RANKL, or 10 μM DIPQUO for 4 days, then harvested into Trizol reagent and processed as above. Mouse qPCR primers are as follows. Runx2: F([…]) (SEQ ID NO:1); R([…]) (SEQ ID NO:2); Dlx5: F([…]) (SEQ ID NO:3); R([…]) (SEQ ID NO:4); Osterix: F([…]) (SEQ ID NO:5); R([…]) (SEQ ID NO:6); ALP: F([…]) (SEQ ID NO:7); R([…]) (SEQ ID NO:8); Osteocalcin: F([…]) (SEQ ID NO:9); R([…]) (SEQ ID NO:10); Osteoactivin: F([…]) (SEQ ID NO:11); R([…]) (SEQ ID NO:12); CTSK: F([…]) (SEQ ID NO:13); R([…]) (SEQ ID NO:14); MMP9: F([…]) (SEQ ID NO:15); R([…]) (SEQ ID NO:16); Gapdh F([…]) (SEQ ID NO:17); R([…]) (SEQ ID NO:18). RNA-seq studies were carried out with the assistance of the Weill Cornell Genomics Core Facility, using the Illumina HiSeq4000 next-generation sequencer to generate reads from cDNA libraries generated from three biological replicates of day 2 DMSO- or DIPQUO-treated C2C12 cells. Gene sets were clustered by biological/disease function using Ingenuity Pathway Analysis (Qiagen Bioinformatics). Heatmaps with hierarchical clustering were generated in R using the CRAN package for a subset of genes involved in bone morphogenesis. Following normalization of the RNA Sequencing counts in DeSeq, z-scores were computed across samples within each gene for use in the heatmap. The accession number for the sequencing data reported in this paper is NCBI GEO: GSE125052.
smiles,measurement,setting,value
"Cc1cc(C)c2[nH]c(=O)c(-c3[nH]cnc3-c3ccccc3)cc2c1 [RU-0226606, 6,8-dimethyl-3-(4-phenyl-1H-imidazol-5-yl)quinolin-2(1H)-one]",changes in expression of OCN and Osteoactivin (qRT-PCR),"2 days, compared with BMP-treated positive controls",much higher with DIPQUO treatment than in BMP-treated positive controls
same,expression of Runx2 and Osterix (qRT-PCR),"2 days, vs DMSO",significant upregulation
same,expression of ALP and OCN (qRT-PCR),"day 2, vs DMSO",substantially increased by day 2
